Measured values published in PMC8486263 (RSC Advances, 2020).
Each block holds one compound with its values, some of them ahead of it.

Assays:
[1] = in vitro; details: African green monkey
Protocol: These assays were performed in human PBM, T lymphoblast CEM-CCRF (CEM), African green monkey kidney (Vero) or human liver (HepG2) cells. Results represent means from triplicate wells.
These were performed in […] (PBM), T lymphoblast CEM-CCRF (CEM), African green monkey kidney (Vero) or human liver (HepG2) cells via MTT assay using the CellTiter 96®. Non-Radioactive Cell Proliferation (Promega) kit as previously described.[23c] Cytotoxicity was expressed as the concentration of test compounds that inhibited cell proliferation by 50% (IC50) and calculated using the Chou and Talalay method.[25]

[2] = system: HIV-1 (strain LAI); assay: microbe, parasite or virus in culture; format: cell-based; details: Human immunodeficiency virus 1, PBMC, 144 h; HIV-1 LAI, MOI 0.1, PHA/IL-2 stimulated human PBM cells, 6 days; read-out: anti-HIV-1 EC50
Protocol: The assay was performed as described previously,[23a,b] with some modifications described elsewhere.[23c] […] Supernatants were harvested, and HIV-1 RT was quantified. Median effective concentrations (EC50) were determined using described method.[23d]

[3] = system: HBV; assay: Antiviral assay against HBV in HepAD38 cells, real-time PCR for HBV DNA; format: cell-based; details: Hepatitis B virus, 168 h
Protocol: HepAD38 cells[24] were seeded at 50 000 cells per well in collagen-coated 96-well plates. Test compounds or 3TC (control) were added to HepAD38 cells to a final concentration of 10 μM. Real-time PCR for HBV DNA lasted 7 days. On day 7, total DNA was purified from supernatant using commercially available kit (DNeasy 96 Blood & Tissue kit, Qiagen). The HBV DNA was amplified in a real-time PCR assay using LightCycler 480 (Roche) as described elsewhere.[23c] All samples were tested in triplicate. Analysis: the concentration of compound that inhibited HBV DNA replication by 50% (EC50) was determined by linear regression.

SMILES: C[C@@H]1C[C@@H]([C@H](O)CC2CC(=O)NC(=O)C2)C(=O)[C@@H](C)C1 [cycloheximide]
IC50 [1]: 500 nM

EC50 [2]: 6 nM
SMILES: Cc1cn([C@H]2C[C@H](N=[N+]=[N-])[C@@H](CO)O2)c(=O)[nH]c1=O [AZT, 3′-azido-3′-deoxythymidine]

SMILES: Nc1ccn([C@@H]2CS[C@H](CO)O2)c(=O)n1 [Lamivudine]
EC50 ([3]; 7 days, HBV DNA in supernatant, read-out: anti-HBV EC50): < 10000 nM | inhibition at 10 µM ([3]; at 10 μM, day 7): 97%
